Measurements as given in patent US20230064978A1, “CYCLIC PEPTIDE RECEPTOR LANTHIONINE SYNTHETASE C-LIKE PROTEIN (LANCL) AND USES THEREOF” (LATERAL IP PTY LTD, priority 2019, published 2023).
Bridges are numbered along the chain shown (N, C = ends). Where no end group is shown, it is not given here.

Experiments:
A549 cells = experiment: Confocal imaging of LAT9991F-PAL binding and LANCL1 co-localization, with siRNA knockdown and competitors, in A549 cells; type: cell-based; settings: for Competition of LAT9991F-PAL binding by excess competitor: competitor 25 μM
Method: (§1) A photoactivatable analog of LAT8881 (LAT9991F (SEQ ID NO:13)-PAL), was used to conduct the experiments. A549 or NCI-H358 cells were treated with LAT9991F-PAL at 2.5 μM during 30 minutes. Fluorescent signal was recorded after that LAT9991F-PAL was immobilized on its target(s) site by UV-crosslinking and the LAT9991F-PAL-target complexes were labeled with the green-fluorescent Alexa Fluor 488 alkyne dye by click-chemistry. Control cells were treated with the vehicle, dimethyl sulfoxide (DMSO), and with LAT9991F-PAL in combination with a large excess of the parent drug LAT8881 or other competitors, GSH, NSC61610 or ABA to evaluate, respectively, the non-specific fluorescent background and the specificity of the staining. For colocalization experiments, subsequently, immunofluorescence staining with an anti-LANCL1 or LANCL2 antibodies and an Alexa 568 (red) conjugated secondary antibody was performed. Images stacks of cells labeled with probes were collected and evaluated for the degree of colocalization of LAT9991F-PAL-target complexes and LANCL1 or LANCL2 using either the Measure Colocalization plugin in Metamorph or the JACoP plugin in ImageJ).
(§2) A549 or NCI-H358 cells (ATCC CCL-185 and ATCC CRL-5807, respectively) were cultured in appropriate medium containing 10% heat-inactivated FBS (Dutscher, #SV30160-036), 1% penicillin/streptomycin (Gibco, #15140-122) and maintained in a humidified 37° C. incubator with 5% CO2.
(§3) LAT9991F-PAL was dissolved in DMSO to make a 10 mM stock solution. Intermediate solutions at 25 μM and 2.5 μM were made in the culture medium from the 10 mM stock solutions of LAT8881 and LAT9991F-PAL, respectively. A two-fold dilution into PBS of each intermediate solution was used for cell treatment. A stock solution at 10 mM was prepared for the other competitors as GSH, NSC61610 and ABA. A final concentration at 25 μM was used for the assay.
(§4) A549 or NCI-H358 cells were seeded onto ibidiTreat Polymer Coverslips (Ibidi, #80826) at 2.5×10^5 cells/cm^2 in 200 μl of complete medium. After 24 hours, the medium was removed and cells were washed with PBS (Gibco, #10010049) and then pre-treated with the Taxol at 1 μM for 3 hours or with H2O2 25 μM for 2 hours. Cells were washed twice with PBS. Induced stress cells or control cells were then exposed to LAT9991F-PAL (2.5 μM) in PBS for 30 minutes, in the presence or absence of LAT8881 (25 μM), or the other compounds used as a competitor, and pre-incubated 10 minutes. After treatment, cells were washed with cold PBS and UV-irradiated (365 nm) in PBS for 20 min. After fixation with 4% paraformaldehyde and permeabilization (0.5% Triton/PBS) (Image-iT™ Fixation/Permeabilization Kit, ThermoFisher, #R37602), the bioorthogonal reaction with Alexa Fluor 488 Alkyne (1 μM) (ThermoFisher, #A10267) was performed at 25° C. using the Click-iT™ Cell Reaction Buffer Kit (ThermoFisher, #C10269) according to the manufacturer protocol. After click reaction, cells were washed twice with PBS, blocked with 3% BSA in PBS for 1 hour and stained with Hoechst 33342 dye (ThermoFisher, #H1399).
(§5) For colocalization experiments, cells were further incubated overnight at 4° C. with a mouse anti-LanCL1 antibody (Invitrogen, PAS-57-107) (dilution 1:1000) or LanCL2 (Atlas Antibodies HPA019711) (dilution 1:1000) in 3% BSA in PBS, washed twice with PBS, and then incubated respectively with a goat anti-mouse […] (Molecular Probes, #A21467) (dilution 1:800) for 1 h in 3% BSA in PBS. After three further washing steps with PBS, cells were embedded in Ibidi Mounting Medium (ibidi, #50001). The specimens were kept at 4° C. in the dark until analysis.
Images were acquired on an Axiovert200M (Zeiss) microscope using a CSU-W1 Yokogawa confocal unit. This microscope is equipped with a plan Apochromat X40 dry objective numerical aperture (NA) 0.95 and a Neofluar X100 oil immersion objective NA 1.45. Images were capture with an EMCCD camera (Prior, ProEM 1024×1024).

NCI-H358 cells = experiment: Confocal imaging of LAT9991F-PAL binding and LANCL1 co-localization, with siRNA knockdown and competitors, in NCI-H358 cells; type: cell-based; settings: for Competition of LAT9991F-PAL binding by excess competitor: competitor 25 μM
Method: as §1, §2, §3
ibidiTreat Polymer Coverslips (Ibidi, #80826) were coated with serum during 1 hour at 37° C., followed by Laminin (100 μg\ml) (incubation for 1 hour at 37° C.) for NCI-H358 cells.
as §4, §5
Images were acquired on an Axiovert200M (Zeiss) microscope using a CSU-W1 Yokogawa confocal unit.

human recombinant LANCL1 = molecular target: T1, human recombinant LANCL1 (Homo sapiens, UniProt O43813); experiment: In-gel fluorescence: photolabelling of recombinant LANCL1 with PAL probes, with or without excess competitor; type: binding; settings: for Inhibition of LAT9991-PAL binding to recombinant LANCL1 by excess competitor: probe LAT9991-PAL, excess unlabelled competitor
T1 construct: purchased ABCAM ab181923; host or cells: E. coli
Method: The in-gel fluorescence protocol can be briefly described as follows:
1. LANCL1 Labelling, Assay on 96 Well Plate, Volume of the Reaction 40 μl in PBS
3 μg/well of human recombinant LANCL1 (ABCAM catalog no. ab181923, 1 mg/ml; expressed in E. Coli and incorporating an N-terminal 23 amino acid hexaHis tag; UniProtKB/Swiss-Prot Accession no: O43813);
• Vehicle DMSO • ±LAT8881 (a cyclic peptide fragment of human growth hormone; SEQ ID NO:1) • SEQ ID NO:1) as competitor @ 25, 50, 100 or 200 μM, pre-incubation 10 min, 4 μl of a stock solution 10-fold concentrated • ±LAT9991-PAL, LAT7771-PAL or LAT9993-PAL probes @ 1 μM, incubation 30 min at room temperature on a plate agitator (protected from light), 4 μl of a stock solution @10 μM
• Irradiation @ 365 nm 20 min (4° C., on a support containing ice) Transfer 40 μl in a clean Eppendorf tube
• Reduction: DTT 10 mM, 30 min @ 56° C. • Alkylation: Iodoacetamide 30 mM, 45 min @ RT Click-iT AzideTamra of 60 μL samples
• Acetone Precipitation −20° C. ON • Dry pellet resuspended in 30 μL 1% SDS in 50 mM Tris-HCl pH 7.5 • Photolabeled LANCL1 was tagged with tetramethylrhodamine (TAMRA) azide @100 μM TAMRA azide by copper click chemistry using the Click-iT Protein Reaction Buffer Kit (ThermoFisher Scientific) during 30 minutes • Precipitation using the chloroform-methanol method, pellet was air-dried for 10 min at room temperature, resuspended in 30 μL SDS loading buffer (Bio Rad's XT Sample Buffer containing 2.5% v/v 2-mercaptoethanol) and heated (60° C., 30 min)
• SDS-PAGE (4-15% Criterion™ TGX Stain-Free™ Protein Gel, Bio Rad) • Analyzed by in-gel fluorescence scanning using a ChemiDoc™ MP Imaging System (Bio Rad) with a green LED light as an excitation source and a BP600/20 nm emission filter

[1] = test system: tissue homogenates of nerve from neuropathic animals; experiment: PAL cross-linking to nerve tissue homogenates and gel separation; type: binding
From the text: Using a ligand driven approach, the present inventors utilized the photo-activatable cross-linking PAL from Evotec A.G. (Photo-Activated Labelling) technology that derivatizes the active cyclic peptides to allow UV-induced cross-linking to binding targets (described herein as peptide/SEQ ID NO:X-PAL). This allows subsequent detection in cells, gels of tissue isolates or in pull-down of the peptide/target complex for sequencing by mass spectroscopy (PALMS).
LAT9991-PAL was cross-linked to tissue homogenates of nerve from neuropathic animals.

T1 sequence (O43813 with tags, fused parts or gaps): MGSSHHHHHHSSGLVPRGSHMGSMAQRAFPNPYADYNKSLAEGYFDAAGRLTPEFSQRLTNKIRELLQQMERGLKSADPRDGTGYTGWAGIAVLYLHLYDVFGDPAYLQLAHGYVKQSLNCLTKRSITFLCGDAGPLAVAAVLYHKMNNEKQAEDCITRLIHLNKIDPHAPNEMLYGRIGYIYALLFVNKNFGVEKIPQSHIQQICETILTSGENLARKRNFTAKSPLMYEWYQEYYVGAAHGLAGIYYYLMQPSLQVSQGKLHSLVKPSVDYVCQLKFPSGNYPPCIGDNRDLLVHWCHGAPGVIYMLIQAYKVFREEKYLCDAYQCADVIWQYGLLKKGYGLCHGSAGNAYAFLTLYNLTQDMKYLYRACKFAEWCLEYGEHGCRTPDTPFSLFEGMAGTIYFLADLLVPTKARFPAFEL

Row | Inhibition of LAT9991-PAL binding to recombinant LANCL1 by excess competitor (human recombinant LANCL1) | Molecule | Competition of LAT9991F-PAL binding by excess competitor (A549 cells; SiLANCL1 A549 cells) | Competition of LAT9991F-PAL binding by excess competitor (NCI-H358 cells; SiLANCL1 NCI-H358 cells) | also measured
1 | – | O=C(Nc1cccc(-c2nc3ccccc3[nH]2)c1)c1ccc(C(=O)Nc2cccc(-c3nc4ccccc4[nH]3)c2)cc1 [NSC61610, reference compound] | strongly competed off | strongly competed off | –
2 | – | N[C@@H](CCC(=O)N[C@@H](CS)C(=O)NCC(=O)O)C(=O)O [glutathione, reference compound] | partially competed off | partially competed off | –
3 | inhibited | CRIIHNNNC [LAT7771] | partially competed off | partially competed off | –
4 | – | LAT9991F-PAL: A photoactivatable analog of LAT8881 (LAT9991F (SEQ ID NO:13)-PAL) (CRSVEGSCGF; disulfide 1-8 (inferred); also: PAL cross-linking group, site not given here) | – | – | Co-localization of LANCL1 and probe binding (A549 cells; A549 cells, confocal microscopy, probe 2.5 μM): co-localization; Co-localization of LANCL1 and probe after siRNA knockdown of LANCL1 (A549 cells; SiLANCL1 A549 cells): lost; Level of probe binding in siLANCL1 cells following induced oxidative stress (A549 cells; siLANCL1 A549 cells, H2O2 25 μM 2 hours or Taxol 1 μM 3 hours, vs SiControl): less intense as compared to control cells; Co-localization of LANCL1 and probe binding (NCI-H358 cells; NCI-H358 cells, confocal microscopy, probe 2.5 μM): co-localization; Co-localization of LANCL1 and probe after siRNA knockdown of LANCL1 (NCI-H358 cells; SiLANCL1 NCI-H358 cells): lost; Level of probe binding in siLANCL1 cells following stress (NCI-H358 cells; siLANCL1 NCI-H358 cells, vs control cells): less intense as compared to control cells
5 | – | LAT9993S-PAL: LAT9993S (SEQ ID NO:44) derivatized with the PAL photo-activatable cross-linking group (SCRSRPVESSCS; disulfide 2-11 (inferred); also: ['PAL photo-activatable cross-linking group, structure and site not given here']) | – | – | Binding of PAL probe to recombinant LANCL1 (human recombinant LANCL1; in-gel fluorescence after UV (365 nm) cross-linking): bound to recombinant LANCL1; Cross-linking of PAL probe to tissue homogenates of nerve from neuropathic animals [1]: shown to cross-link; Molecular weight ranges of targets stained after gel separation ([1]; PAL probe cross-linked to nerve homogenates): ˜12-15 kD, ˜37 kD and ˜50 kD
6 | inhibited | SCRSRPVESSCS [LAT9993S] | partially competed off | partially competed off | –
